# Assay results as given in publication PMC4186683 (Molecular Pharmaceutics, 2014).
# Marks after values point to notes of the source that are not given here.
# Tested on: not listed separately
# Assay: Fraction of total tissue amount present in the bilayer, calculated from Pb/w
# Conditions: bilayer volume 2.5% of tissue volume, no protein binding
row,SMILES,fraction of the total amount in the tissue present in the bilayer [%]
1,"CCCCCCO [compound 11, 1-hexanol]",68
2,"BrCCc1ccccc1 [compound 7, 1-bromo-2-phenylethane]",93
3,"Cc1cc(O)ccc1Cl [compound 74, 4-chloro-3-methylphenol]",97
4,"c1ccc2[nH]ccc2c1 [compound 111, indole]",81
5,"OCc1c2ccccc2cc2ccccc12 [compound 82, 9-anthracenemethanol]",99

# Tested on: not given
# Assay: not given
# Conditions: experimental values from the ClogP database ref 119; cited from earlier work
row,SMILES,logP O/W
1,"Clc1cc(Cl)c(-c2ccccc2)cc1Cl [compound 46, 2,4,5-trichlorobiphenyl]",5.90
2,"Clc1ccc(Cl)c(-c2ccccc2)c1 [compound 51, 2,5-dichlorobiphenyl]",5.16
3,"Clc1cc(Cl)c(-c2ccccc2)c(Cl)c1 [compound 47, 2,4,6-trichlorobiphenyl]",5.71
4,"Clc1c(Cl)c(Cl)c(-c2ccccc2)c(Cl)c1Cl [compound 35, 2,3,4,5,6-pentachlorobiphenyl]",6.74
5,"Cc1ccc(C)c(O)c1 [compound 52, 2,5-dimethylphenol]",2.33
6,"Nc1cc2ccccc2cc1N [compound 42, 2,3-diaminonaphthalene]",1.54
7,"Clc1ccc(-c2ccccc2)c(Cl)c1 [compound 49, 2,4-dichlorobiphenyl]",5.30
8,"Clc1ccc(-c2ccccc2Cl)c(Cl)c1 [compound 28, 2,2′,4-trichlorobiphenyl]",5.76
9,"Cc1ccc([N+](=O)[O-])cc1 [compound 79, 4-nitrotoluene]",2.37
10,"Clc1cccc(-c2c(Cl)cccc2Cl)c1 [compound 41, 2,3′,6-trichlorobiphenyl]",5.67
11,"Clc1ccccc1-c1c(Cl)cccc1Cl [compound 31, 2,2′,6-trichlorobiphenyl]",5.47
12,"Nc1cccc(Br)c1 [compound 63, 3-bromoaniline]",2.10
13,"Nc1ccc(Br)cc1 [compound 71, 4-bromoaniline]",2.11
14,"CCOC(=O)c1cccnc1 [compound 95, ethylnicotinate]",1.32
15,"Brc1cccc2ccccc12 [compound 10, 1-bromonaphthalene]",4.06
16,"Clc1cccc(-c2ccc(Cl)c(Cl)c2Cl)c1Cl [compound 16, 2,2′,3,3′,4-pentachlorobiphenyl]",6.30
17,"Clc1cccc(Cl)c1 [compound 3, 1,3-dichlorobenzene]",3.53
18,"c1ccc2c(c1)ccc1ccccc12 [compound 104, phenanthrene]",4.46
19,"Clc1cccc(-c2cc(Cl)ccc2Cl)c1 [compound 39, 2,3′,5-trichlorobiphenyl]",5.76
20,"BrCCCc1ccccc1 [compound 8, 1-bromo-3-phenylpropane]",3.72
21,"Clc1ccc(Cl)c(-c2cc(Cl)ccc2Cl)c1 [compound 29, 2,2′,5,5′-tetrachlorobiphenyl]",6.26
22,"BrCCc1ccccc1 [compound 7, 1-bromo-2-phenylethane]",3.09
23,"Clc1ccc(-c2c(Cl)cccc2Cl)cc1 [compound 48, 2,4′,6-trichlorobiphenyl]",5.75
24,"Clc1ccc(-c2cc(Cl)ccc2Cl)c(Cl)c1 [compound 27, 2,2′,4,5′-tetrachlorobiphenyl]",6.36
25,"Clc1ccc(Cl)c(-c2cc(Cl)c(Cl)cc2Cl)c1 [compound 25, 2,2′,4,5,5′-pentachlorobiphenyl]",6.85
26,"Cc1cc(O)ccc1Cl [compound 74, 4-chloro-3-methylphenol]",3.10
27,"Clc1ccccc1-c1ccccc1 [compound 58, 2-chlorobiphenyl]",4.53

row,SMILES,logP O/W
1,"CC(=O)c1ccc(N)cc1 [compound 68, 4-aminoacetophenone]",0.86
2,"Clc1cccc(-c2ccccc2Cl)c1 [compound 44, 2,3′-dichlorobiphenyl]",5.02
3,"Clc1cc(-c2ccccc2)c(Cl)c(Cl)c1Cl [compound 36, 2,3,4,5-tetrachlorobiphenyl]",6.41
4,"Clc1ccc(Cl)c(-c2ccccc2)c1Cl [compound 40, 2,3,6-trichlorobiphenyl]",5.67
5,"Clc1ccccc1Cl [compound 1, 1,2-dichlorobenzene]",3.43
6,"Nc1cc(Cl)c(Cl)cc1Cl [compound 45, 2,4,5-trichloroaniline]",3.69
7,"Clc1ccccc1 [compound 92, chlorobenzene]",2.89
8,"Clc1cccc(-c2cccc(Cl)c2Cl)c1Cl [compound 18, 2,2′,3,3′-tetrachlorobiphenyl]",6.18
9,"Clc1ccc(Cl)c(-c2c(Cl)ccc(Cl)c2Cl)c1Cl [compound 17, 2,2′,3,3′,6,6′-hexachlorobiphenyl]",7.12
10,"Clc1ccc(Cl)c(-c2cccc(Cl)c2Cl)c1 [compound 21, 2,2′,3,5′-tetrachlorobiphenyl]",5.81
11,"Clc1cc(Cl)cc(Cl)c1 [compound 2, 1,3,5-trichlorobenzene]",4.19
12,"O=C(c1ccccc1)c1ccc(Cl)cc1 [compound 75, 4-chlorobenzophenone]",3.79
13,"Clc1ccccc1-c1cccc(Cl)c1Cl [compound 23, 2,2′,3-trichlorobiphenyl]",5.60
14,"Clc1cc(Cl)c(-c2c(Cl)cc(Cl)cc2Cl)c(Cl)c1 [compound 24, 2,2′,4,4′,6,6′-hexachlorobiphenyl]",7.29
15,"Clc1cccc(Cl)c1-c1ccccc1 [compound 53, 2,6-dichlorobiphenyl]",4.98
16,"Clc1ccc(Br)cc1 [compound 9, 1-bromo-4-chlorobenzene]",3.54
17,"Clc1ccccc1-c1ccccc1Cl [compound 33, 2,2′-dichlorobiphenyl]",4.97
18,"Clc1ccc(-c2ccccc2Cl)cc1 [compound 50, 2,4′-dichlorobiphenyl]",5.10
19,"Clc1cccc(-c2ccccc2)c1Cl [compound 43, 2,3-dichlorobiphenyl]",4.99
20,"Clc1cc(Cl)c(-c2ccccc2Cl)cc1Cl [compound 26, 2,2′,4,5-tetrachlorobiphenyl]",6.27
21,"Cc1cccc(C)c1[N+](=O)[O-] [compound 4, 1,3-dimethyl-2-nitrobenzene]",2.95
22,"Clc1ccc(-c2ccc(Cl)c(Cl)c2Cl)c(Cl)c1Cl [compound 14, 2,2′,3,3′,4,4′-hexachlorobiphenyl]",7.32
23,"COc1cccc(OC)c1O [compound 54, 2,6-dimethoxyphenol]",1.15
24,"CN(C)c1ccc(C=O)cc1 [compound 77, 4-dimethylamino-benzaldehyde]",2.01
25,"CCCCCc1ccc(O)cc1 [compound 80, 4-n-pentylphenol]",4.24
26,"Cc1ccc2cc3ccccc3cc2c1 [compound 60, 2-methylanthracene]",5.00
27,"Cc1ccccc1Br [compound 57, 2-bromotoluene]",3.50

# Tested on: not given
# Assay: not given
# Conditions: marked values, listed in Table 1; cited from earlier work
row,SMILES,log P C16/DAcPC
1,"CC(C)(c1ccc(O)cc1)c1ccc(O)cc1 [compound 91, bisphenol A]",–2.70 ^b
2,"CCCc1ccccc1 [compound 101, n-propylbenzene]",2.98 ^b
3,"Cc1ccc(C)cc1 [compound 6, 1,4-dimethylbenzene]",2.59 ^b
4,"OCc1c2ccccc2cc2ccccc12 [compound 82, 9-anthracenemethanol]",–0.42 ^b

# Tested on: rhodopsin
# Assay: not given
# Conditions: 1-palmitoyl-2-oleoyl-PC vesicles ref 132; cited from earlier work
row,SMILES,effect on photolysis of rhodopsin
1,CCCCCCCCO [compound 116],inhibitory effect
2,"CCCCCCO [compound 11, 1-hexanol]",negligible
3,"CCO [compound 94, ethanol]",promoting effect
4,"CCCCCO [compound 114, 1-pentanol]",promoting effect
5,CCCCCCCO [compound 115],inhibitory effect
6,"CCCCO [compound 113, 1-butanol]",promoting effect

# Tested on: not given
# Assay: not given
# Conditions: DMPC bilayer; listed in Table 1; cited from earlier work
row,SMILES,log P bilayer/water exptl
1,"OCc1ccccc1 [compound 89, benzylalcohol]",2.03
2,"CC(C)(c1ccc(O)cc1)c1ccc(O)cc1 [compound 91, bisphenol A]",2.95
3,"CCCc1ccccc1 [compound 101, n-propylbenzene]",3.29
4,"Cc1ccc(C)cc1 [compound 6, 1,4-dimethylbenzene]",2.98
5,"OCc1c2ccccc2cc2ccccc12 [compound 82, 9-anthracenemethanol]",3.50
